These results are taken from patent US9040103B2, “Use of essential oil of oregano and of rosewood, or constituents thereof, in the therapeutic treatment of keratoses” (L'Oreal, priority 2010, dated 2015).

In this series the test system is A431 cells. The series can be described thus: Apoptosis, annexin V/propidium iodide (AV/PI) test. The series is classed as cell-based, human. The conditions noted are these: 12 h; for death by targeted apoptosis of mutated cancer cells: A431 vs HEK001, linalool 320 nL/mL, carvacrol 60 nL/mL, thymol 30 nL/mL; for cytotoxic efficacy compared with the complex essential oils: concentrations equal to those present in the essential oil treatments. The protocol: These three molecules were incubated for 12 h with non-mutated immortalized keratinocytes (HEK001) and mutated cancerous keratinocytes (A431). The percentage of cells in apoptosis was measured by the annexin V/propidium iodide test. The concentrations of the molecules used were equal to those present during the treatments with the essential oils. Example: the concentration of linalool used here represents the equivalent of 80% of linalool present in the essential oil of rosewood.
Annexin V/Propidium Iodide Test:
One of the markers for apoptosis is the translocation of phosphatidyl-serine from the internal face towards the external face of the plasma membrane (translocation, allowing apoptotic bodies to be recognized and phagocyted by the macrophages).
The AV/PI test can be used to detect this event because of the affinity of the protein annexin V for phosphatidyl-serine. Propidium iodide, which targets DNA, can be used to distinguish early apoptotic cells from cells in late apoptosis and/or in necrosis.
After the desired treatment time, the medium was eliminated, the cells were harvested (by trypsinization), centrifuged and rinsed in 4 mL of PBS 1×. Tagging was carried out following the instructions of the manufacturer (Kit Vybrant, Molecular Probe). The cells were rapidly taken up in 100 μl of tagging buffer, to which 6 μl of annexin V and 3 μg/mL of propidium iodide per sample was added. The cells were then incubated for 30 min in the dark (at ambient temperature). Four hundred μL of tagging buffer was added before measuring the fluorescence of the annexin V (at 530 nm) and of the propidium iodide (at 610 nm).

For the molecule `Cc1ccc(C(C)C)cc1O` [carvacrol], the “death by targeted apoptosis of mutated cancer cells” value (from here on “death by targeted apoptosis”) is listed as “qualitatively conserved” and the “cytotoxic efficacy compared with the complex essential oils” value is recorded as “lower than with complex essential oils”. For the setting “60 nL/mL”, the “apoptotic A431 cells” value is recorded as approximately 25%.
Turning to `C=CC(C)(O)CCC=C(C)C` (centres unmarked) [linalool], the “death by targeted apoptosis” value is “qualitatively conserved” and the “cytotoxic efficacy compared with the complex essential oils” value was “lower than with complex essential oils”.
In the case of `Cc1ccc(C(C)C)c(O)c1` [thymol], the “death by targeted apoptosis” value is “qualitatively conserved” and the “cytotoxic efficacy compared with the complex essential oils” value is recorded as “lower than with complex essential oils”. The “apoptotic A431 cells” value (30 nL/mL) is given as “approximately 15%”.
